Experimental data published in patent US20220281848A1, “PYRAZOLE-SUBSTITUTED PYRROLIDINONES AS HERBICIDES” (FMC Corporation, priority 2019, published 2022).

Columns and labels:
Type in all cases: in vivo
Settings in all cases: after 13 d
corn (Zea mays, ZEAMX) [1] = assay: Test A pre-emergence, corn
Description: (§1) Seeds of corn (Zea mays, ZEAMX), giant foxtail (Setaria faberi, SETFA), barnyardgrass (Echinochloa crus-galli, ECHCG), ivy-leaved morning glory (Ipomoea hederacea, IPOHE), redroot pigweed (Amaranthus retroflexus, AMARE) and velvetleaf (Abutilon theophrasti, ABUTH) were sown in standard soil in pots. After cultivation for one day under controlled conditions in a glasshouse (at 24/16° C., day/night; 14 h light; 65% humidity), the plants were sprayed with an aqueous spray solution derived from the formulation of the technical active ingredient in acetone/water (50:50) solution containing 0.5% Tween 20 (polyoxyethylene sorbitan monolaurate, CAS RN 9005-64-5) to give a final dose of 15.625, 62.5 or 250 g/ha of test compound.
(§2) The test plants were then grown under controlled conditions in a glasshouse (at 24/16° C., day/night; 14 h light; 65% humidity) and watered twice daily. After 13 d the test was evaluated (100=total damage to plant; 0=no damage to plant).

[2] = test system: giant foxtail (Setaria faberi, SETFA); assay: Test A post-emergence, giant foxtail
Description: as §1, with “IPOHE)),” for “IPOHE),”, “8 d” for “one day”
(§3) The test plants were then grown on under controlled conditions in a glasshouse (at 24/16° C., day/night; 14 h light; 65% humidity) and watered twice daily. After 13 d the test was evaluated (100=total damage to plant; 0=no damage to plant).

[3] = test system: ivy-leaved morning glory (Ipomoea hederacea, IPOHE); assay: Test A post-emergence, ivy-leaved morning glory
Description: as §1, with “IPOHE)),” for “IPOHE),”, “8 d” for “one day”
as §3

[4] = test system: velvetleaf (Abutilon theophrasti, ABUTH); assay: Test A pre-emergence, velvetleaf
Description: as §1, §2

[5] = test system: ivy-leaved morning glory (Ipomoea hederacea, IPOHE); assay: Test A pre-emergence, ivy-leaved morning glory
Description: as §1, §2

[6] = test system: velvetleaf (Abutilon theophrasti, ABUTH); assay: Test A post-emergence, velvetleaf
Description: as §1, with “IPOHE)),” for “IPOHE),”, “8 d” for “one day”
as §3

[7] = test system: redroot pigweed (Amaranthus retroflexus, AMARE); assay: Test A pre-emergence, redroot pigweed
Description: as §1, §2

corn (Zea mays, ZEAMX) [8] = assay: Test A post-emergence, corn
Description: as §1, with “IPOHE)),” for “IPOHE),”, “8 d” for “one day”
as §3

[9] = test system: redroot pigweed (Amaranthus retroflexus, AMARE); assay: Test A post-emergence, redroot pigweed
Description: as §1, with “IPOHE)),” for “IPOHE),”, “8 d” for “one day”
as §3

[10] = test system: barnyardgrass (Echinochloa crus-galli, ECHCG); assay: Test A pre-emergence, barnyardgrass
Description: as §1, §2

[11] = test system: barnyardgrass (Echinochloa crus-galli, ECHCG); assay: Test A post-emergence, barnyardgrass
Description: as §1, with “IPOHE)),” for “IPOHE),”, “8 d” for “one day”
as §3

[12] = test system: giant foxtail (Setaria faberi, SETFA); assay: Test A pre-emergence, giant foxtail
Description: as §1, §2

Compound	damage to plant (100=total damage; 0=no damage) ZEAMX (corn (Zea mays, ZEAMX) [1]; Pre-Emergence at 15.625 g/ha)	damage to plant (100=total damage; 0=no damage) ZEAMX (corn (Zea mays, ZEAMX) [1]; Pre-Emergence at 62.5 g/ha)	damage to plant (100=total damage; 0=no damage) ZEAMX (corn (Zea mays, ZEAMX) [1]; Pre-Emergence at 250 g/ha)	damage to plant (100=total damage; 0=no damage) SETFA ([2]; Post-Emergence at 15.625 g/ha)	damage to plant (100=total damage; 0=no damage) SETFA ([2]; Post-Emergence at 62.5 g/ha)	damage to plant (100=total damage; 0=no damage) SETFA ([2]; Post-Emergence at 250 g/ha)	damage to plant (100=total damage; 0=no damage) IPOHE ([3]; Post-Emergence at 15.625 g/ha)	damage to plant (100=total damage; 0=no damage) IPOHE ([3]; Post-Emergence at 62.5 g/ha)	damage to plant (100=total damage; 0=no damage) IPOHE ([3]; Post-Emergence at 250 g/ha)	damage to plant (100=total damage; 0=no damage) ABUTH ([4]; Pre-Emergence at 15.625 g/ha)	damage to plant (100=total damage; 0=no damage) ABUTH ([4]; Pre-Emergence at 62.5 g/ha)	damage to plant (100=total damage; 0=no damage) ABUTH ([4]; Pre-Emergence at 250 g/ha)	damage to plant (100=total damage; 0=no damage) IPOHE ([5]; Pre-Emergence at 15.625 g/ha)	damage to plant (100=total damage; 0=no damage) IPOHE ([5]; Pre-Emergence at 62.5 g/ha)	damage to plant (100=total damage; 0=no damage) IPOHE ([5]; Pre-Emergence at 250 g/ha)	damage to plant (100=total damage; 0=no damage) ABUTH ([6]; Post-Emergence at 15.625 g/ha)	damage to plant (100=total damage; 0=no damage) ABUTH ([6]; Post-Emergence at 62.5 g/ha)	damage to plant (100=total damage; 0=no damage) ABUTH ([6]; Post-Emergence at 250 g/ha)	damage to plant (100=total damage; 0=no damage) AMARE ([7]; Pre-Emergence at 15.625 g/ha)	damage to plant (100=total damage; 0=no damage) AMARE ([7]; Pre-Emergence at 62.5 g/ha)	also measured
CCn1nc(C2CN(C)C(=O)C2C(=O)Nc2cccc(F)c2F)c2cccc(F)c21 (racemic) [Compound 10]	0	70	70	50	80	90	0	0	30	0	10	0	0	30	0	0	0	10	0	0	damage to plant (100=total damage; 0=no damage) AMARE ([7]; Pre-Emergence at 250 g/ha): 10; damage to plant (100=total damage; 0=no damage) ZEAMX (corn (Zea mays, ZEAMX) [8]; Post-Emergence at 15.625 g/ha): 0; damage to plant (100=total damage; 0=no damage) ZEAMX (corn (Zea mays, ZEAMX) [8]; Post-Emergence at 62.5 g/ha): 10; damage to plant (100=total damage; 0=no damage) ZEAMX (corn (Zea mays, ZEAMX) [8]; Post-Emergence at 250 g/ha): 70; damage to plant (100=total damage; 0=no damage) AMARE ([9]; Post-Emergence at 15.625 g/ha): 0; damage to plant (100=total damage; 0=no damage) AMARE ([9]; Post-Emergence at 62.5 g/ha): 0; damage to plant (100=total damage; 0=no damage) AMARE ([9]; Post-Emergence at 250 g/ha): 0; damage to plant (100=total damage; 0=no damage) ECHCG ([10]; Pre-Emergence at 15.625 g/ha): 50; damage to plant (100=total damage; 0=no damage) ECHCG ([10]; Pre-Emergence at 62.5 g/ha): 90; damage to plant (100=total damage; 0=no damage) ECHCG ([10]; Pre-Emergence at 250 g/ha): 90; damage to plant (100=total damage; 0=no damage) ECHCG ([11]; Post-Emergence at 15.625 g/ha): 60; damage to plant (100=total damage; 0=no damage) ECHCG ([11]; Post-Emergence at 62.5 g/ha): 90; damage to plant (100=total damage; 0=no damage) ECHCG ([11]; Post-Emergence at 250 g/ha): 90; damage to plant (100=total damage; 0=no damage) SETFA ([12]; Pre-Emergence at 15.625 g/ha): 80; damage to plant (100=total damage; 0=no damage) SETFA ([12]; Pre-Emergence at 62.5 g/ha): 90; damage to plant (100=total damage; 0=no damage) SETFA ([12]; Pre-Emergence at 250 g/ha): 90
CN1CC(c2cc(Cl)n(C)n2)C(C(=O)Nc2ccc(F)cc2F)C1=O (racemic) [Compound 29]	0	10	10	10	20	60	0	0	10	0	0	0	0	0	0	0	0	0	0	0	damage to plant (100=total damage; 0=no damage) AMARE ([7]; Pre-Emergence at 250 g/ha): 0; damage to plant (100=total damage; 0=no damage) ZEAMX (corn (Zea mays, ZEAMX) [8]; Post-Emergence at 15.625 g/ha): 0; damage to plant (100=total damage; 0=no damage) ZEAMX (corn (Zea mays, ZEAMX) [8]; Post-Emergence at 62.5 g/ha): 0; damage to plant (100=total damage; 0=no damage) ZEAMX (corn (Zea mays, ZEAMX) [8]; Post-Emergence at 250 g/ha): 0; damage to plant (100=total damage; 0=no damage) AMARE ([9]; Post-Emergence at 15.625 g/ha): 10; damage to plant (100=total damage; 0=no damage) AMARE ([9]; Post-Emergence at 62.5 g/ha): 30; damage to plant (100=total damage; 0=no damage) AMARE ([9]; Post-Emergence at 250 g/ha): 40; damage to plant (100=total damage; 0=no damage) ECHCG ([10]; Pre-Emergence at 15.625 g/ha): 30; damage to plant (100=total damage; 0=no damage) ECHCG ([10]; Pre-Emergence at 62.5 g/ha): 70; damage to plant (100=total damage; 0=no damage) ECHCG ([10]; Pre-Emergence at 250 g/ha): 80; damage to plant (100=total damage; 0=no damage) ECHCG ([11]; Post-Emergence at 15.625 g/ha): 20; damage to plant (100=total damage; 0=no damage) ECHCG ([11]; Post-Emergence at 62.5 g/ha): 50; damage to plant (100=total damage; 0=no damage) ECHCG ([11]; Post-Emergence at 250 g/ha): 60; damage to plant (100=total damage; 0=no damage) SETFA ([12]; Pre-Emergence at 15.625 g/ha): 20; damage to plant (100=total damage; 0=no damage) SETFA ([12]; Pre-Emergence at 62.5 g/ha): 30; damage to plant (100=total damage; 0=no damage) SETFA ([12]; Pre-Emergence at 250 g/ha): 80
